Test [1] concerns the target T1, recombinant human FLAP protein (Homo sapiens, UniProt P20292).
T1 construct: made in house; host or cells: Sf9 insect cells (membrane fraction, 100,000 x g pellet)
T1 sequence (P20292 1-161): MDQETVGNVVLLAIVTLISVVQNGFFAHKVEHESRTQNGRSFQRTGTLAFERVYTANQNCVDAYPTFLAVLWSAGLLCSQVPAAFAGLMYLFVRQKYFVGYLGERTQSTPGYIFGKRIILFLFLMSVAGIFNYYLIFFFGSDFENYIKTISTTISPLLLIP
Put plainly: FLAP binding assay (SPA, displacement of [125I]L-691,831). The following applies: membranes of sf9 cells expressing human FLAP, [125I]L-691,831 probe; read-out: hFLAP binding IC50. A digest of the protocol: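 Membranes from sf9 cells expressing human FLAP (5 μg/well) were bound to WGA SPA beads (200 μg/well). Nonspecific binding was defined with 10 μM unlabelled L-691,831.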
(In general: Loss of bound radioactivity is the signal in a displacement assay; it reports binding, not function.)

Test [2] deals with synthesis of LTB4 in human whole blood. Kind of test: Human whole blood LTB4 production inhibition assay. The format is cell-based. The following applies: heparinized human whole blood, calcimycin 20 μM, plasma LTB4; read-out: HuWB IC50. A digest of the protocol: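 Heparinized human whole blood was preincubated with compound for 15 min at 37° C, then stimulated with calcimycin (20 μM final, in PBS pH 7.4) for a further 30 min at 37° C. Plasma LTB4 was quantified by antibody-based homogeneous time-resolved fluorescence.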

For 28 compounds, IC50 results are on record in patent US9073895B2 (Boehringer Ingelheim International GmbH, priority 2010, dated 2015).

One may read the IC50 as the concentration at which inhibition is half-maximal.

On to `Cc1nc(-c2ccc(NC(=O)C(c3ccc(-c4cnc(N)nc4)cc3)C(C)(C)C)nc2)cs1` (centres unmarked) [Example 90, 2-[4-(2-aminopyrimidin-5-yl)phenyl]-3,3-dimethyl-N-[5-(2-methyl-1,3-thiazol-4-yl)pyridin-2-yl]butanamide], for which the IC50 in test [1] was found to be 31.5 nM; in test [2] it was 2080 nM.
In the same order, the values of `Nc1ncc(-c2ccc(C3(C(=O)Nc4cc(C(F)(F)F)no4)CCOCC3)cc2)cn1` [Example 125, 4-[4-(2-aminopyrimidin-5-yl)phenyl]-N-[3-(trifluoromethyl)-1,2-oxazol-5-yl]tetrahydro-2H-pyran-4-carboxamide] are 173 nM and 5560 nM.
With `Cc1nc(-c2ccc(NC(=O)C3(c4ccc(-c5cnc(N)nc5)cc4)CCOCC3)cc2)cs1` [Example 121, 4-[4-(2-aminopyrimidin-5-yl)phenyl]-N-[4-(2-methyl-1,3-thiazol-4-yl)phenyl]tetrahydro-2H-pyran-4-carboxamide], the IC50 in test [1] came out at 19 nM; in test [2], 1880 nM.
On the same counts, the results for `N#Cc1ccc(NC(=O)C2(c3ccc(-c4cnc(N)nc4)nc3)CCC2)cc1` [Example 98, 1-[6-(2-aminopyrimidin-5-yl)pyridin-3-yl]-N-(4-cyanophenyl)cyclobutane-carboxamide] are 12.2 nM and 236 nM.
Consider `Nc1ncc(-c2ccc(C3(C(=O)Nc4cccc(-c5ccccc5)c4)CCOCC3)cc2)cn1` [Example 24, 4-[4-(2-aminopyrimidin-5-yl)phenyl]-N-(biphenyl-3-yl)tetrahydro-2H-pyran-4-carboxamide], for which the IC50 in test [1] is 95 nM; in test [2], over 3000 nM.
In the same order, the values of `Cn1cnc(-c2ccc(NC(=O)C3(c4ccc(-c5cnc(N)nc5)cc4)CCOCC3)nc2)c1` [Example 144, 4-[4-(2-aminopyrimidin-5-yl)phenyl]-N-[5-(1-methyl-1H-imidazol-4-yl)pyridin-2-yl]tetrahydro-2H-pyran-4-carboxamide] are 66 nM and 1590 nM.
On the same counts, the results for `Cc1nccn1-c1ccc(NC(=O)C2(c3ccc(-c4cnc(N)nc4)cc3)CCOCC2)cc1` [Example 224, 4-[4-(2-aminopyrimidin-5-yl)phenyl]-N-[4-(2-methyl-1H-imidazol-1-yl)phenyl]tetrahydro-2H-pyran-4-carboxamide] are 30 nM and 718 nM.
On the same counts, the results for `Nc1ncc(-c2ccc(C3(C(=O)Nc4ccncc4)CCOCC3)cc2)cn1` [Example 155, 4-[4-(2-aminopyrimidin-5-yl)phenyl]-N-(pyridin-4-yl)tetrahydro-2H-pyran-4-carboxamide] are 136 nM and 857 nM.
With `Nc1ncc(-c2ccc(C3(C(=O)Nc4ccc(OC(F)(F)F)cc4)CCOCC3)cc2)cn1` [Example 39, 4-[4-(2-aminopyrimidin-5-yl)phenyl]-N-[4-(trifluoromethoxy)phenyl] tetrahydro-2H-pyran-4-carboxamide], the figures for the IC50 in test [1] and in test [2] were 55 nM and 1920 nM, respectively.
Turning to `COc1ccc2nc(NC(=O)C3(c4ccc(-c5cnc(N)nc5)cc4)CCOCC3)sc2c1` [Example 7, 4-[4-(2-aminopyrimidin-5-yl)phenyl]-N-(6-methoxy-1,3-benzothiazol-2-yl)tetrahydro-2H-pyran-4-carboxamide], the values for the IC50 in test [1] and in test [2] were 10.7 nM and 2660 nM, respectively.
In the same order, the values of `Nc1ncc(-c2ccc(C3(C(=O)Nc4ccc(Oc5ccccc5)cn4)CCOCC3)cc2)cn1` [Example 173, 4-[4-(2-aminopyrimidin-5-yl)phenyl]-N-(5-phenoxypyridin-2-yl)tetrahydro-2H-pyran-4-carboxamide] are 18 nM and 930 nM.
For the compound `COc1cncc(-c2ccc(C(C)(C(=O)Nc3cccc(-c4csc(C)n4)c3)C(C)C)cc2)c1` (centres unmarked) [Example 113, 2-[4-(5-methoxypyridin-3-yl)phenyl]-2,3-dimethyl-N-[3-(2-methyl-1,3-thiazol-4-yl)phenyl]butanamide], the values for the IC50 in test [1] and in test [2] were 390 nM and 10400 nM, respectively.
On the same counts, the results for `Cc1ccc(NC(=O)C2(c3ccc(-c4cnc(N)nc4)cc3)CCC2)nc1` [Example 210, 1-[4-(2-aminopyrimidin-5-yl)phenyl]-N-(5-methylpyridin-2-yl)cyclobutanecarboxamide] are 5.1 nM and 792 nM.
In the same order, the values of `Cn1nccc1-c1ccc(NC(=O)C2(c3ccc(-c4cnc(N)nc4)cc3)CCOCC2)nc1` [Example 218, 4-[4-(2-aminopyrimidin-5-yl)phenyl]-N-[5-(1-methyl-1H-pyrazol-5-yl)pyridin-2-yl]tetrahydro-2H-pyran-4-carboxamide] are 32.5 nM and 958 nM.
In the same order, the values of `Cc1cc(C)c2ccc(NC(=O)C3(c4ccc(-c5cnc(N)nc5)cc4)CCOCC3)nc2n1` [Example 38, 4-[4-(2-aminopyrimidin-5-yl)phenyl]-N-(5,7-dimethyl-1,8-naphthyridin-2-yl)tetrahydro-2H-pyran-4-carboxamide] are 59.5 nM and over 3000 nM.
As to `N#Cc1ccc(NC(=O)C2(c3ccc(-c4cnc(N)nc4)nc3)CCC2)cc1Cl` [Example 91, 1-[6-(2-aminopyrimidin-5-yl)pyridin-3-yl]-N-(3-chloro-4-cyanophenyl)cyclobutane-carboxamide], the IC50 amounted to 5.45 nM in test [1] and 240 nM in test [2].
On the same counts, the results for `Nc1ncc(-c2ccc(C3(C(=O)Nc4ccc(N5CCOCC5)c(Cl)c4)CCC3)cc2)cn1` [Example 245, 1-[4-(2-aminopyrimidin-5-yl)phenyl]-N-[3-chloro-4-(morpholin-4-yl)phenyl]cyclobutanecarboxamide] are 3.3 nM and 46 nM.
On the same counts, the results for `Nc1ncc(-c2ccc(C3(C(=O)Nc4ccc5c(c4)OCCO5)CCOCC3)cc2)cn1` [Example 12, 4-[4-(2-aminopyrimidin-5-yl)phenyl]-N-(2,3-dihydro-1,4-benzodioxin-6-yl)tetrahydro-2H-pyran-4-carboxamide] are 68 nM and 2220 nM.
In the same order, the values of `Nc1ncc(-c2ccc(C3(C(=O)Nc4ccc(OCc5ccccc5)c(Cl)c4)CCOCC3)cc2)cn1` [Example 49, 4-[4-(2-aminopyrimidin-5-yl)phenyl]-N-[4-(benzyloxy)-3-chlorophenyl]tetrahydro-2H-pyran-4-carboxamide] are 27 nM and 534 nM.
For the compound `CCCCc1ccc2cc(NC(=O)C(C)(c3ccc(-c4cncc(OC)c4)cc3)C(C)C)ccc2n1` (centres unmarked) [Example 115, N-(2-butylquinolin-6-yl)-2-[4-(5-methoxypyridin-3-yl)phenyl]-2,3-dimethylbutanamide], the values for the IC50 in test [1] and in test [2] were 190 nM and 17100 nM, respectively.
For the compound `COC(=O)c1sc(-c2ccccc2)cc1NC(=O)C1(c2ccc(-c3cnc(N)nc3)cc2)CCOCC1` [Example 30, methyl 3-[({4-[4-(2-aminopyrimidin-5-yl)phenyl]tetrahydro-2H-pyran-4-yl}carbonyl)amino]-5-phenylthiophene-2-carboxylate], the IC50 in test [1] is 18 nM; in test [2] it was 2240 nM.
For the compound `Nc1ncc(-c2ccc(C3(C(=O)Nc4ccc(Cl)c(F)c4)CCOCC3)cc2)cn1` [Example 66, 4-[4-(2-aminopyrimidin-5-yl)phenyl]-N-(4-chloro-3-fluorophenyl)tetrahydro-2H-pyran-4-carboxamide], the values for the IC50 in test [1] and in test [2] were 11.9 nM and 1780 nM, respectively.
For `Nc1ncc(-c2ccc(C3(C(=O)Nc4ccc(C(F)(F)F)cc4)CCOCC3)cc2)cn1` [Example 41, 4-[4-(2-aminopyrimidin-5-yl)phenyl]-N-[4-(trifluoromethyl)phenyl] tetrahydro-2H-pyran-4-carboxamide], the IC50 in test [1] was 120 nM; in test [2], over 3000 nM.
On the same counts, the results for `Nc1ncc(-c2ccc(C3(C(=O)Nc4ccncn4)CCC3)cc2)cn1` [Example 185, 1-[4-(2-aminopyrimidin-5-yl)phenyl]-N-(pyrimidin-4-yl)cyclobutanecarboxamide] are 17.5 nM and 955 nM.
Turning to `NC(=O)c1ccc(NC(=O)C2(c3ccc(-c4cnc(N)nc4)cc3)CCC2)nc1` [Example 93, 6-[({1-[4-(2-aminopyrimidin-5-yl)phenyl]cyclobutyl}carbonyl)amino]pyridine-3-carboxamide], the IC50 worked out at 2.05 nM in test [1] and 312 nM in test [2].
Consider `Cc1nc(-c2ccc(NC(=O)C3(c4ccc(-c5cnc(N)nc5)cc4)CCCCC3)cc2)cs1` [Example 120, 1-[4-(2-aminopyrimidin-5-yl)phenyl]-N-[4-(2-methyl-1,3-thiazol-4-yl)phenyl]cyclohexane-carboxamide], for which the half-inhibitory concentration (IC50) in test [1] worked out at 11.5 nM; in test [2], 1270 nM.
In the same order, the values of `Nc1ncc(-c2ccc(C3(C(=O)Nc4cc(Cl)cc(Cl)c4)CCOCC3)cc2)cn1` [Example 15, 4-[4-(2-aminopyrimidin-5-yl)phenyl]-N-(3,5-dichlorophenyl)tetrahydro-2H-pyran-4-carboxamide] are 23.5 nM and over 3000 nM.
On the same counts, the results for `Nc1ncc(-c2ccc(C3(C(=O)Nc4ccc5ncsc5c4)CCC3)cc2)cn1` [Example 204, 1-[4-(2-aminopyrimidin-5-yl)phenyl]-N-(1,3-benzothiazol-6-yl)cyclobutanecarboxamide] are 2.8 nM and 415 nM.
